Test results as given in patent publication US6413937B1, “Combinations for use in increasing the potency of a substrate for multidrug resistance related protein” (Dublin City University and Enterprise Ireland, priority 1996, dated 2002).

Legend:
GSTs = details: cited from earlier work
DLKP-A cell line = test: miniaturised in vitro colorimetric cell survival assay, P-170 overexpressing DLKP-A; format: cell-based, human
Procedure: All the results presented in this Example for the DLKP, A549 and OAW42-SR cell lines were derived using the same miniaturised in vitro calorimetric assay system. On Day 1 of the assay 1000 cells/well/100 μl were plated into 96-well plates. Cells were allowed to attach overnight and cell viability was visually assessed. On Day 2 the two drugs (i.e. NSAID plus chemotherapeutic drug) to be analysed were added onto the cells. The individual drugs were added separately in 50 μl quantities (4× stocks, to take into account the dilution effect of having 200 μl final volume in each well). The drugs were left on the cells for five further days (Day 7) and cell number was determined using the acid phosphatase end-point assay which uses p-nitrophenol phosphate as substrate (Martin, A. and Clynes, M. (1991) In Vitro Dev. Biol., 27A, 183-184). On Day 7 the culture medium was removed from the cells and they were washed once with phosphate buffered saline (PBS). After washing, 100 μl of freshly prepared substrate-containing buffer (0.1% Triton X-100 in 0.1M sodium acetate, pH 5.5) was added to each well and the plates were left in an incubator at 37° C. for 2 h. After the incubation period 50 μl of 1N NaOH was added to each well to develop the colour. The plates were then read at 405 nm (reference 620 nm) on an ELISA plate-reader.
In the results given below the % cell survival in the drug-free control is 100%. All results are the cell survival means ±S.D. from a minimum of three experiments.
v) is an example of a positive NSAID plus a positive drug on a P-170 overexpressing cell line: DLKP-A;

In the case of `COc1ccc2c(c1)c(CC(=O)O)c(C)n2C(=O)c1ccc(Cl)cc1` [Indomethacin, indomethacin], the “inhibition of GSTs” value (GSTs) is given as “inhibitor of GSTs”.

For `CC1=C(CC(=O)O)c2cc(F)ccc2/C1=C\c1ccc([S+](C)[O-])cc1` (stereo not shown) [Sulindac, sulindac], the “% cell survival” value (DLKP-A cell line; v) Sulindac 1.5 μg/ml, alone or + Vincristine 1.0 μg/ml) was 108.9 ± 8.0%, the “% cell survival” value (DLKP-A cell line; v) Sulindac 3 μg/ml, alone or + Vincristine 1.0 μg/ml) was 86.30 ± 13.7% and the “% cell survival” value (DLKP-A cell line; v) Sulindac alone (concentration not given) or Sulindac 6 μg/ml + Vincristine 1.0 μg/ml) was 105.7 ± 5.2%.
